In patent publication US10414775B2 (Merck Sharp & Dohme Corp., priority 2016, dated 2019):

These compounds were tested against T1, Human CYP8B1 (Homo sapiens, UniProt Q9UNU6) (assay: Human Cyp8B1 Liver Microsome Assay). Details: human liver microsomes; substrate 7α-hydroxy-4-cholesten-3-one, NADPH; 30 min pre-incubation, 45 min reaction; RapidFire MS readout.
T1 construct: tissue Xenotech; host or cells: human liver microsomes
T1 sequence (Q9UNU6 1-501): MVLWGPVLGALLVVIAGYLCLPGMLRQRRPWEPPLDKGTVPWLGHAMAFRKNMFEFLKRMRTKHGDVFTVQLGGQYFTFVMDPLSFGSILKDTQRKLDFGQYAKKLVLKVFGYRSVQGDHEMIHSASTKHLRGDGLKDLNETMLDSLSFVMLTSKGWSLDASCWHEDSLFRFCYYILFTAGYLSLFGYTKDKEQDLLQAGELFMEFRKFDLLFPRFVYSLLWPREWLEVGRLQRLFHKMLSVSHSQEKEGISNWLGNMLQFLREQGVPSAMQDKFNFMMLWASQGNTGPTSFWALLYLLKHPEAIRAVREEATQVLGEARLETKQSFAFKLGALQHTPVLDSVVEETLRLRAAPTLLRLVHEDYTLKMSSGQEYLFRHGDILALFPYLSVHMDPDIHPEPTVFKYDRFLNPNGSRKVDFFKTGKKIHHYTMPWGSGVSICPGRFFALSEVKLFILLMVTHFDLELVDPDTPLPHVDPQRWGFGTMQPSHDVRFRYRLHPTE
Assay type: biochemical
Method: Human Cyp8B1 Liver Microsome Assay To a 384 well polypropylene plate (Corning 3656), 250 nl of inhibitor in 100% DMSO (1.25% final DMSO concentration) was pre-plated using an Echo liquid handler (Labcyte Inc.). Human liver microsomes (Xenotech) were diluted in of 0.1 M phosphate buffer, pH 7.4, at a concentration of 65 μg/ml and 15 μL was added to the 384 well plate. The plates were incubated at ambient room temperature for 30 minutes. After pre-incubation with inhibitor, the reaction was initiated by adding 5 μl of substrate solution (4.0 μM 7α-hydroxy-4-cholesten-3-one(Toronto Research Chemicals), 2 mM of NADPH (Sigma), 0.1 M phosphate buffer (pH 7.4). The reaction was carried out for 45 minutes at ambient room temperature and was quenched by the addition of 50 μl of acetonitrile+0.1% vol/vol formic acid (FA)+300 nM 7α-hydroxy-4-cholesten-3-one-d7 (Toronto Research Chemicals). The plates were sealed and centrifuged at 3000 rpm for 5 minutes. Plates were loaded onto the Agilent RapidFire RF300 HTMS system, wherein samples were sipped for 600 ms, and the sip sensor detection signals the diversion of sample from the loop onto a C4 solid phase extraction (SPE) cartridge, where salts are washed off for 2500 ms with a mobile phase of water with 0.1% vol/vol FA at a flow rate of 1.5 ml/min. The column path is switched, and the sample is eluted off the cartridge and flowed into the mass spectrometer for 3000 ms with a mobile phase of acetonitrile and 0.1% vol/vol FA at a flow rate of 1.25 ml/min. The aspirator tip was washed separately with water and acetonitrile between sample aspirations (each for 600 ms) to minimize carryover contamination. Mass spectrometry was carried out using a Sciex API4000 triple quadrupole mass spectrometer (Applied Biosystems, Concord, ON, Canada) equipped with electrospray ionization (ESI) operated in the positive-ion mode. The product 7α, 12α-dihydroxy-4-cholesten-3-one and internal standard 7α-hydroxy-4-cholsten-3-one-d7 were detected using multiple reaction monitoring (MRM) with Q1/Q3 transitions at m/z 417.3 to 381.3 and m/z 408.3 to 390.3, respectively, with a dwell time of 100 ms and a collision energy of 24 V for each transition. The mass spectrometer used an ESI voltage of 5000 V and a source temperature of 650° C. Extracted ion chromatograms for each transition were integrated and processed using the RapidFire Integrator software. The data for each well were normalized by monitoring product conversion with the ratio of AUCproduct/(AUCinternal standard). The data was then fitted to a four parameter logistic fit using ActivityBase Software to calculate an IC50 of the inhibitor.

Compound | IC50 [nM]
C[C@@H]1CN(c2c(Cl)cnc3c(F)cccc23)CC[C@@H]1C(=O)N1CCn2c(nnc2C(F)(F)F)C1 [Example 6, ((3S,4S)-1-(3-chloro-8-fluoroquinolin-4-yl)-3-methylpiperidin-4-yl)(3-(trifluoromethyl)-5,6-dihydro-[1,2,4]triazolo[4,3-a]pyrazin-7(8H)-yl)methanone] | 0.9
C[C@@H]1CN(c2c(Cl)cnc3cc(-c4ncco4)ccc23)CC[C@@H]1C(=O)N1CCn2c(nnc2C(F)(F)F)C1 [Example 76, ((3S,4S)-1-(3-chloro-7-(oxazol-2-yl)quinolin-4-yl)-3-methylpiperidin-4-yl)(3-(trifluoromethyl)-5,6-dihydro-[1,2,4]triazolo[4,3-a]pyrazin-7(8H)-yl)methanone] | 0.7
C[C@@H]1CN(c2c(F)cnc3cc(C(C)(F)F)ccc23)CC[C@@H]1C(=O)N1CCn2c(nnc2C(F)(F)F)C1 [Example 47, {(3S,4S)-1-[7-(1,1-difluoroethyl)-3-fluoroquinolin-4-yl]-3-methylpiperidin-4-yl}[3-(trifluoromethyl)-5,6-dihydro[1,2,4]triazolo[4,3-a]pyrazin-7(8H)-yl]methanone] | 0.57
CC(C)NC(=O)c1ccc2c(N3CC[C@H](C(=O)N4CCn5c(nnc5C(F)(F)F)C4)[C@H](C)C3)ccnc2c1 [Example 66, N-isopropyl-4-((3 S,4S)-3-methyl-4-(3-(trifluoromethyl)-5,6,7,8-tetrahydro-[1,2,4]triazolo[4,3-a]pyrazine-7-carbonyl)piperidin-1-yl)quinoline-7-carboxamide] | 4.5
C[C@@H]1CN(c2c(C(F)F)cnc3cc(C4CC4)ccc23)CC[C@@H]1C(=O)N1CCn2c(nnc2C(F)(F)F)C1 [Example 54, {(3S,4S)-1-[7-cyclopropyl-3-(difluoromethyl)quinolin-4-yl]-3-methylpiperidin-4-yl}[3-(trifluoromethyl)-5,6-dihydro[1,2,4]triazolo[4,3-a]pyrazin-7(81H)-yl]methanone] | 0.61
C[C@@H]1CN(c2ccnc3cc(OC(F)F)ccc23)CC[C@@H]1C(=O)N1CCn2c(nnc2C(F)(F)F)C1 [Example 33, {(3S,4S)-1-[7-(difluoromethoxy)quinolin-4-yl]-3-methylpiperidin-4-yl}[3-(trifluoromethyl)-5,6-dihydro[1,2,4]triazolo[4,3-a]pyrazin-7(8H)-yl]methanone] | 8.3
C[C@@H]1CN(c2ccnc3cc(C(=O)NC45CC(C4)C5)ccc23)CC[C@@H]1C(=O)N1CCn2c(nnc2C(F)(F)F)C1 [Example 68, N-(bicyclo[1.1.1]pentan-1-yl)-4-((3S,4S)-3-methyl-4-(3-(trifluoromethyl)-5,6,7,8-tetrahydro-[1,2,4]triazolo [4,3-a]pyrazine-7-carbonyl)piperidin-1-yl) quinoline-7-carboxamide] | 21.1
COc1ccc2c(N3CC[C@H](C(=O)N4CCn5c(nnc5C(F)(F)F)C4)[C@H](C)C3)c([N+](=O)[O-])cnc2c1 [Example 9, ((3S,4S)-1-(7-methoxy-3-nitroquinolin-4-yl)-3-methylpiperidin-4-yl)(3-(trifluoromethyl)-5,6-dihydro-[1,2,4]triazolo[4,3-a]pyrazin-7(8H)-yl)methanone] | 0.2
C[C@@H]1CN(c2c(Cl)cnc3cc([C@@H](C)O)ccc23)CC[C@@H]1C(=O)N1CCn2c(nnc2C(F)(F)F)C1 (single isomer, unassigned) [Example 44b] | 1.2
C[C@@H]1CN(c2c(Cl)cnc3c2CCN(CC(F)(F)F)C3)CC[C@@H]1C(=O)N1CCn2c(nnc2C(F)(F)F)C1 [Example 60, ((3S,4S)-1-(3-chloro-7-(2,2,2-trifluoroethyl)-5,6,7,8-tetrahydro-1,7-naphthyridin-4-yl)-3-methylpiperidin-4-yl)(3-(trifluoromethyl)-5,6-dihydro-[1,2,4]triazolo[4,3-a]pyrazin-7(8H)-yl)methanone] | 0.8
COc1ccc2c(N3CC[C@H](C(=O)N4CCn5c(nnc5C(F)(F)F)C4)[C@H](C)C3)c(Cl)cnc2c1 [Example 3, ((3S,4S)-1-(3-chloro-7-methoxyquinolin-4-yl)-3-methylpiperidin-4-yl)(3-(trifluoromethyl)-5,6-dihydro-[1,2,4]triazolo[4,3-a]pyrazin-7(8H)-yl)methanone] | 0.2
C[C@@H]1CN(c2ccnc3c2CCN(CC(F)(F)F)C3)CC[C@@H]1C(=O)N1CCn2c(nnc2C(F)(F)F)C1 [Example 63, ((3S,4S)-3-methyl-1-(7-(2,2,2-trifluoroethyl)-5,6,7,8-tetrahydro-1,7-naphthyridin-4-yl)piperidin-4-yl)(3-(trifluoromethyl)-5,6-dihydro-[1,2,4]triazolo[4,3-a]pyrazin-7(8H)-yl)methanone] | 120
C[C@H]1CN(c2ccnc3ccc(Cl)cc23)CC[C@H]1C(=O)N1CCn2c(nnc2C(F)(F)F)C1 (single isomer, unassigned) [Example 11b] | 1180
C[C@@H]1CN(c2c(Cl)cnc3cc(-c4ncco4)ccc23)CC[C@@H]1C(=O)N1CCc2c(noc2C(F)(F)F)C1 [Example 77, ((3S,4S)-1-(3-chloro-7-(oxazol-2-yl)quinolin-4-yl)-3-methylpiperidin-4-yl)(3-(trifluoromethyl)-4,5-dihydroisoxazolo [3,4-c]pyridin-6(7H)-yl)methanone] | 0.2
C[C@@H]1CN(c2ccnc3cc(-c4ccccc4)ccc23)CC[C@@H]1C(=O)N1CCn2c(nnc2C(F)(F)F)C1 [Example 80] | 0.4
C[C@@H]1CN(c2ccnc3cc(S(C)(=O)=O)ccc23)CC[C@@H]1C(=O)N1CCn2c(nnc2C(F)(F)F)C1 [Example 71, ((3 S,4S)-3-methyl-1-(7-(methylsulfonyl)quinolin-4-yl)piperidin-4-yl)(3-(trifluoromethyl)-5,6-dihydro-[1,2,4]triazolo[4,3-a]pyrazin-7(8H)-yl)methanone] | 305
C[C@@H]1CN(c2c(F)cnc3cc(C(F)F)ccc23)CC[C@@H]1C(=O)N1CCn2c(nnc2C(F)(F)F)C1 [Example 56, ((3S,4S)-1-(7-(difluoromethyl)-3-fluoroquinolin-4-yl)-3-methylpiperidin-4-yl)(3-(trifluoromethyl)-5,6-dihydro-[1,2,4]triazolo[4,3-a]pyrazin-7(8H)-yl)methanone] | 0.46
CCNC(=O)c1ccc2c(N3CC[C@H](C(=O)N4CCn5c(nnc5C(F)(F)F)C4)[C@H](C)C3)ccnc2c1 [Example 69, N-ethyl-4-((3S,4S)-3-methyl-4-(3-(trifluoromethyl)-5,6,7,8-tetrahydro-[1,2,4]triazolo [4,3-a]pyrazine-7-carbonyl)piperidin-1-yl) quinoline-7-carboxamide] | 368
C[C@@H]1CN(c2c(Cl)cnc3cc(C4CC4)ccc23)CC[C@@H]1C(=O)N1CCn2c(nnc2C(F)(F)F)C1 [Example 50, [(3S,4S)-1-(3-chloro-7-cyclopropyl-quinolin-4-yl)-3-methylpiperidin-4-yl][3-(trifluoromethyl)-5,6-dihydro[1,2,4]triazolo[4,3-a]pyrazin-7(8H) - yl]methanone] | 0.25
C[C@@H]1CN(c2ccnc3c2CCN(C(=O)OC2(C)CC2)C3)CC[C@@H]1C(=O)N1CCn2c(nnc2C(F)(F)F)C1 [Example 64, 1-methylcyclopropyl 4-((3 S,4S)-3-methyl-4-(3-(trifluoromethyl)-5,6,7,8-tetrahydro-[1,2,4]triazolo[4,3-a]pyrazine-7-carbonyl)piperidin-1-yl)-5,6-dihydro-1,7-naphthyridine-7(8H)-carboxylate] | 49
